Measurements published in patent US11000033B2, “Ketone or oxime compound, and herbicide” (NISSAN CHEMICAL CORPORATION, priority 2014, dated 2021).

What was measured:
Format in all cases: in vivo
Avena fatua = assay: Test Example 4: herbicidal effect by soil treatment (symbol I); conditions: for I: Avena fatua, herbicidal effect grade: 320 g/ha; for I (Avena fatua) herbicidal effect grade: application herbicide amount 320 g/ha
How it was run: (§1)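 Seeds were sown in sterilized diluvial soil, covered with about 1.5 cm of soil, and the soil surface was sprayed with a water-diluted emulsion of the compound at a predetermined rate. Plants grew in a greenhouse at 25° C. to 30° C.; effects were scored visually 3 weeks after application.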

Abutilon theophrasti = assay: Test Example 5: herbicidal effect by foliage application, plastic box (symbol M); conditions: 320 g/ha, 3 weeks after application
How it was run: (§2)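 Emulsion formulation, diluted with water to the intended rate, was applied uniformly to leaves by small sprayer. Recipients were 14-day greenhouse-grown seedlings (25° C. to 30° C.). Assessment followed at 3 weeks.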

Amaranthus retroflexus = assay: Test Example 5: herbicidal effect by foliage application, plastic box (symbol N); conditions: 320 g/ha, 3 weeks after application
How it was run: as §2

Alopecurus myosuroides = assay: Test Example 4: herbicidal effect by soil treatment (symbol J); conditions: for J: Alopecurus myosuroides, herbicidal effect grade: 320 g/ha; for J (Alopecurus myosuroides) herbicidal effect grade: application herbicide amount 320 g/ha
How it was run: as §1

corn = assay: Test Example 4: effect on crop by soil treatment (symbol c); conditions: for c: corn, effect grade on crop: 320 g/ha; for c (corn) effect on crop grade: application herbicide amount 320 g/ha
How it was run: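 Crop seed is sown in spots together with several weed species in a box of sterilized diluvial soil. It is covered by about 1.5 cm of soil and kept in a greenhouse held between 25° C. and 30° C.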

rice plant = assay: Test Example 5: effect on crop by foliage application, plastic box (symbol b); conditions: 320 g/ha, 3 weeks after application
How it was run: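 Crop and weed seeds sown in spots in sterilized diluvial soil in plastic boxes and covered with about 1.5 cm soil. Plants raised in a greenhouse at 25° C. to 30° C. for foliar application.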

Stellaria media = assay: Test Example 5: herbicidal effect by foliage application, plastic box (symbol P); conditions: 320 g/ha, 3 weeks after application
How it was run: as §2

Setaria viridis = assay: Test Example 5: herbicidal effect by foliage application, plastic box (symbol G); conditions: 320 g/ha, 3 weeks after application
How it was run: as §2

rapeseed = assay: Test Example 4: effect on crop by soil treatment (symbol g); conditions: for g: rapeseed, effect grade on crop: 320 g/ha; for g (rapeseed) effect on crop grade: application herbicide amount 320 g/ha
How it was run: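 Diluvial soil (sterilized) in boxes; seeds placed spot-wise alongside weed species; ~1.5 cm covering soil. Greenhouse, 25–30° C.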

[1] = tested on: Echinochloa crus-galli var. crus-galli; assay: Test Example 4: herbicidal effect by soil treatment (symbol H); conditions: for H: Echinochloa crus-galli var. crus-galli, herbicidal effect grade: 320 g/ha; for H (Echinochloa crus-galli var. crus-galli) herbicidal effect grade: application herbicide amount 320 g/ha
How it was run: as §1

Galium spurium = assay: Test Example 5: herbicidal effect by foliage application, plastic box (symbol Q); conditions: 320 g/ha, 3 weeks after application
How it was run: as §2

Lolium multiflorum Lam. [2] = assay: Test Example 5: herbicidal effect by foliage application, plastic box (symbol K); conditions: 320 g/ha, 3 weeks after application
How it was run: as §2

Lolium multiflorum Lam. [3] = assay: Test Example 4: herbicidal effect by soil treatment (symbol K); conditions: for K: Lolium multiflorum Lam., herbicidal effect grade: 320 g/ha; for K (Lolium multiflorum Lam.) herbicidal effect grade: application herbicide amount 320 g/ha
How it was run: as §1

Veronica persica [4] = assay: Test Example 4: herbicidal effect by soil treatment (symbol R); conditions: for R: Veronica persica, herbicidal effect grade: 320 g/ha; for R (Veronica persica) herbicidal effect grade: application herbicide amount 320 g/ha
How it was run: as §1

[5] = tested on: Echinochloa oryzacola Vasing.; assay: Test Example 1: herbicidal activity, application before weed generation in submerged conditions (symbol A); conditions: application herbicide amount 320 g/ha
How it was run: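 Pre-emergence, paddy conditions: emulsifiable formulation diluted in water, dosed onto floodwater (4 cm depth) on sowing day. Alluvial soil; weeds sown mixed; rice transplanted at 2.5-leaf stage. Greenhouse 25–30 °C, 3 wk. Score 0–5 (5 = ≥90% kill, 0 = ≤5%).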

[6] = tested on: Echinochloa oryzacola Vasing.; assay: Test Example 2: herbicidal activity, application during weed generation in submerged conditions (symbol A); conditions: Table 23; application herbicide amount 320 g/ha; grade 0-5 by criteria of Test Example 1
How it was run: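 Seeds sown in flooded alluvial soil (4 cm water) were grown in a 25-30° C greenhouse. At the one- to two-leaf stage, diluted emulsion of compound was applied to the water surface at a predetermined rate. Effect was scored 3 weeks later.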

Veronica persica [7] = assay: Test Example 5: herbicidal effect by foliage application, plastic box (symbol R); conditions: 320 g/ha, 3 weeks after application
How it was run: as §2

Compound	I: Avena fatua, herbicidal effect grade (Avena fatua)	M: Abutilon theophrasti, herbicidal effect (criteria 0-5) (Abutilon theophrasti)	N: Amaranthus retroflexus, herbicidal effect (criteria 0-5) (Amaranthus retroflexus)	J: Alopecurus myosuroides, herbicidal effect grade (Alopecurus myosuroides)	c: corn, effect grade on crop (corn)	b: directly sowed rice plant, effect on crop (criteria 0-5) (rice plant)	P: Stellaria media, herbicidal effect (criteria 0-5) (Stellaria media)	G: Setaria viridis, herbicidal effect (criteria 0-5) (Setaria viridis)	g: rapeseed, effect grade on crop (rapeseed)	H: Echinochloa crus-galli var. crus-galli, herbicidal effect grade [1]	Q: Galium spurium, herbicidal effect (criteria 0-5) (Galium spurium)	K: Lolium multiflorum Lam., herbicidal effect (criteria 0-5) (Lolium multiflorum Lam. [2])	K: Lolium multiflorum Lam., herbicidal effect grade (Lolium multiflorum Lam. [3])	R: Veronica persica, herbicidal effect grade (Veronica persica [4])	Herbicidal effect grade, A: Echinochloa oryzacola Vasing. [5]	Herbicidal effect grade, A: Echinochloa oryzacola Vasing. [6]	R: Veronica persica, herbicidal effect (criteria 0-5) (Veronica persica [7])	I (Avena fatua) herbicidal effect grade (Avena fatua)	M: Abutilon theophrasti, herbicidal effect grade (Abutilon theophrasti)	N: Amaranthus retroflexus, herbicidal effect grade (Amaranthus retroflexus)	other results
CON=C(C)CC1CC(OC(=O)COc2ccc(I)cc2)=C(c2c(C)cc(C)cc2C)C1=O (centres unmarked) [1-082]	3 (Herbicidal ratio of 40% or higher and lower than 70%)	4 (Herbicidal ratio of 70% or higher and lower than 90%)	0 (Herbicidal ratio of 5% or lower (almost no effect))	5 (Herbicidal ratio of 90% or more (almost completely withered))	4 (Herbicidal ratio of 70% or higher and lower than 90%)	5 (Herbicidal ratio of 90% or more (almost completely withered))	0 (Herbicidal ratio of 5% or lower (almost no effect))	5 (Herbicidal ratio of 90% or more (almost completely withered))	4 (Herbicidal ratio of 70% or higher and lower than 90%)	5 (Herbicidal ratio of 90% or more (almost completely withered))	0 (Herbicidal ratio of 5% or lower (almost no effect))	5 (Herbicidal ratio of 90% or more (almost completely withered))	5 (Herbicidal ratio of 90% or more (almost completely withered))	0 (Herbicidal ratio of 5% or lower (almost no effect))	5 (Herbicidal ratio of 90% or more (almost completely withered))	5 (Herbicidal ratio of 90% or more (almost completely withered))	0 (Herbicidal ratio of 5% or lower (almost no effect))	–	–	–	–
CON=C(C)CC1CC(OC(=O)COc2ccccc2OC)=C(c2c(C)cc(C)cc2C)C1=O (centres unmarked) [1-067]	–	–	–	–	–	–	–	–	–	–	–	–	–	–	5 (Herbicidal ratio of 90% or more (almost completely withered))	4 (Herbicidal ratio of 70% or higher and lower than 90%)	–	3 (Herbicidal ratio of 40% or higher and lower than 70%)	5 (Herbicidal ratio of 90% or more (almost completely withered))	4 (Herbicidal ratio of 70% or higher and lower than 90%)	J (Alopecurus myosuroides) herbicidal effect grade (Alopecurus myosuroides): 5 (Herbicidal ratio of 90% or more (almost completely withered)); c (corn) effect on crop grade (corn): 3 (Herbicidal ratio of 40% or higher and lower than 70%); b: directly sowed rice plant, effect on crop grade (rice plant): 5 (Herbicidal ratio of 90% or more (almost completely withered)); P: Stellaria media, herbicidal effect grade (Stellaria media): 3 (Herbicidal ratio of 40% or higher and lower than 70%); G: Setaria viridis, herbicidal effect grade (Setaria viridis): 5 (Herbicidal ratio of 90% or more (almost completely withered)); g (rapeseed) effect on crop grade (rapeseed): 4 (Herbicidal ratio of 70% or higher and lower than 90%); H (Echinochloa crus-galli var. crus-galli) herbicidal effect grade [1]: 5 (Herbicidal ratio of 90% or more (almost completely withered)); Q: Galium spurium, herbicidal effect grade (Galium spurium): 2 (Herbicidal ratio of 20% or higher and lower than 40%); K: Lolium multiflorum Lam., herbicidal effect grade (Lolium multiflorum Lam. [2]): 3 (Herbicidal ratio of 40% or higher and lower than 70%); K (Lolium multiflorum Lam.) herbicidal effect grade (Lolium multiflorum Lam. [3]): 5 (Herbicidal ratio of 90% or more (almost completely withered)); R (Veronica persica) herbicidal effect grade (Veronica persica [4]): 0 (Herbicidal ratio of 5% or lower (almost no effect)); R: Veronica persica, herbicidal effect grade (Veronica persica [7]): 3 (Herbicidal ratio of 40% or higher and lower than 70%)
CON=C(CC1CC(O)=C(c2c(C)cc(C)cc2C)C1=O)C(C)C (centres unmarked) [1-048]	–	–	–	–	–	–	–	–	–	–	–	–	–	–	5 (Herbicidal ratio of 90% or more (almost completely withered))	5 (Herbicidal ratio of 90% or more (almost completely withered))	–	1 (Herbicidal ratio of 5% or higher and lower than 20%)	3 (Herbicidal ratio of 40% or higher and lower than 70%)	1 (Herbicidal ratio of 5% or higher and lower than 20%)	J (Alopecurus myosuroides) herbicidal effect grade (Alopecurus myosuroides): 5 (Herbicidal ratio of 90% or more (almost completely withered)); c (corn) effect on crop grade (corn): 3 (Herbicidal ratio of 40% or higher and lower than 70%); b: directly sowed rice plant, effect on crop grade (rice plant): 5 (Herbicidal ratio of 90% or more (almost completely withered)); P: Stellaria media, herbicidal effect grade (Stellaria media): 3 (Herbicidal ratio of 40% or higher and lower than 70%); G: Setaria viridis, herbicidal effect grade (Setaria viridis): 4 (Herbicidal ratio of 70% or higher and lower than 90%); g (rapeseed) effect on crop grade (rapeseed): 0 (Herbicidal ratio of 5% or lower (almost no effect)); H (Echinochloa crus-galli var. crus-galli) herbicidal effect grade [1]: 5 (Herbicidal ratio of 90% or more (almost completely withered)); Q: Galium spurium, herbicidal effect grade (Galium spurium): 1 (Herbicidal ratio of 5% or higher and lower than 20%); K: Lolium multiflorum Lam., herbicidal effect grade (Lolium multiflorum Lam. [2]): 5 (Herbicidal ratio of 90% or more (almost completely withered)); K (Lolium multiflorum Lam.) herbicidal effect grade (Lolium multiflorum Lam. [3]): 5 (Herbicidal ratio of 90% or more (almost completely withered)); R (Veronica persica) herbicidal effect grade (Veronica persica [4]): 0 (Herbicidal ratio of 5% or lower (almost no effect)); R: Veronica persica, herbicidal effect grade (Veronica persica [7]): 3 (Herbicidal ratio of 40% or higher and lower than 70%)
CON=C(CC1CC(O)=C(c2c(C)cc(C)cc2C)C1=O)C1CCCCC1 (centres unmarked) [1-085]	0 (Herbicidal ratio of 5% or lower (almost no effect))	0 (Herbicidal ratio of 5% or lower (almost no effect))	0 (Herbicidal ratio of 5% or lower (almost no effect))	3 (Herbicidal ratio of 40% or higher and lower than 70%)	0 (Herbicidal ratio of 5% or lower (almost no effect))	4 (Herbicidal ratio of 70% or higher and lower than 90%)	0 (Herbicidal ratio of 5% or lower (almost no effect))	5 (Herbicidal ratio of 90% or more (almost completely withered))	0 (Herbicidal ratio of 5% or lower (almost no effect))	1 (Herbicidal ratio of 5% or higher and lower than 20%)	0 (Herbicidal ratio of 5% or lower (almost no effect))	3 (Herbicidal ratio of 40% or higher and lower than 70%)	3 (Herbicidal ratio of 40% or higher and lower than 70%)	0 (Herbicidal ratio of 5% or lower (almost no effect))	4 (Herbicidal ratio of 70% or higher and lower than 90%)	3 (Herbicidal ratio of 40% or higher and lower than 70%)	0 (Herbicidal ratio of 5% or lower (almost no effect))	–	–	–	–
